In one data set the test system is H1975 lung cancer cells. The data set can be described thus: MTT assay (cell viability; CI and SI derived from it). It is filed as cell-based, human. The note with it: for IC50: H1975, max tested 100 μM, combinations: Ru-PIP gradient with fixed Olaparib; for Selectivity Index (SI) = IC50 normal cells/IC50 cancer cells: MRC5 vs H1975. The method, then:
(§1) Cells were seeded in 96-well plates at 5 × 10^3 cells/well and allowed to adhere overnight. […] For drug combination treatment, cells were treated with concentration gradient of Ru-PIP (3.125–100 µM) in combination with Olaparib (5 or 10 µM). After 24, 48 or 72 h incubation, 0.5 mg/ml thiazolyl blue tetrazolium bromide (MTT) dissolved in 1X PBS was added to each well and cells were incubated at 37 °C for 4 h. 100 µl of DMSO was added to each well to solubilize the reduced purple formazan crystals formed. Next, the absorbance at 570 nm (630 nm as reference wavelength) was measured using a microplate reader. The half maximal inhibitory concentration (IC50) for each compound was determined using GraphPad Prism software. Additionally, selectivity indices (SI) were determined by the ratio between IC50 of normal cells and that of cancer cells.
(§2) Based on the data obtained from MTT assay, combination indices (CI) were determined using Calcusyn and CompuSyn software (Biosoft, Cambridge, UK). This is based on the established drugs combination method by Chou and Talalay[30],[31]. CI values indicate the type of drugs interaction in which CI < 0.9 indicates synergism, CI = 0.9–1.0 indicates additive and CI > 1.0 indicates antagonism. GraphPad Prism software was used to generate a three-color scale based on CI values obtained, where synergism is represented by green, additive by yellow, and antagonism by red in which the colors of each CI value were interpolated in between these constraints accordingly.
In general terms: Tetrazolium dyes change colour on reduction, which living cells bring about.

Another data set deals with T24 bladder cancer cells. The data set is described as above. It is filed as cell-based, human. The note with it: for Selectivity Index (SI) = IC50 normal cells/IC50 cancer cells: MRC5 vs T24; for IC50: T24, max tested 100 μM, combinations: Ru-PIP gradient with fixed Olaparib. The method, then: as §1, §2
Data set [1] relates to MRC5 normal human lung fibroblasts. In words: MTT assay (cell viability). It is filed as cell-based. The note with it: max tested 100 μM, combinations: Ru-PIP gradient with fixed Olaparib. Here is the method:
as §1

Data set [2] has as its system A549, H1975 and T24 cells. The data set can be described thus: MTT assay, summary statements over the cancer cell lines. It is filed as cell-based, human. To be noted: 72 h treatments; A549, H1975 and T24 cells vs normal MRC5 cells. The method, then: as §1
For data set [3], the system named is A549 cells. The data set can be described thus: Wound healing assay. It is filed as cell-based, human. The note with it: Ru-PIP 25 µM, time point not stated (untreated 100% closed at 72 h). Here is the method: Lung cancer cells were seeded at density of 5 × 10^5 cells/well in a 6-well plate and were incubated in the incubator until a confluent monolayer of cells formed. After serum-starved for 4 h, a straight scratch was made in each well with a sterile 200 µl pipette tip, solution was removed, and each well was washed with 1X PBS twice. Cells were treated with Ru-PIP (25 µM), Olaparib (5 µM) or both. Cells migration in the wound scratch area was photographed at 0, 24, 48 and 72 h timepoints. Images were photographed at 10 × magnification using a camera attached microscope and were analyzed using ImageJ software. The percentage of wound scratch closure was determined by measuring the reduction in the wound area at each time point by comparing to 0 h (100%).

In data set [4] the test system is A549 cells. In words: Cell cycle analysis (PI staining, flow cytometry). It is filed as cell-based, human. The note with it: Ru-PIP 25 µM, 24 h. The method, then: Lung cancer cells were seeded in 6-well plate at density of 1 × 10^5 cells/well and allowed to adhere overnight. Cells were treated with Ru-PIP (25 µM), Olaparib (5 µM) or both. After 24 or 48 h incubations, cells were harvested, washed with 1X PBS twice, and fixed with ice-cold 70% ethanol at least overnight at − 20 °C. The fixed cells were collected by centrifugation at 1,000 rpm for 5 min and the resulting pellets were washed with 1X PBS twice. The samples were resuspended in 500 µl PBS and treated with 5 µl RNase A solution (10 mg/ml) for 15 min at RT. After incubation, the samples were stained with 2 µl of propidium iodide (PI) solution (5 mg/ml) at RT, in the dark. Samples were acquired, and cell cycle distribution was analyzed using NovoCyte flow cytometer and NovoExpress software. For each sample, a minimum of 10,000 cells were counted and analyzed.
(In general: Flow cytometry measures light scatter and fluorescence of single cells or particles in a stream.)

Another data set concerns A549 spheroids. In words: Spheroids growth inhibition studies. The note with it: Ru-PIP 25 µM. It is filed as cell-based, human. The method, then:
Spheroids establishment was attempted for A549 lung cancer cells using hanging drop method. 20 µL of cell suspension containing 2000, 4000, 6000, 8000 and 10,000 cells were dropped onto the surface of petri dish lid and incubated at 37 °C, such that each drop will contain single spheroid. After three days of incubation, each spheroid formed was transferred onto agarose-coated (50 µL, 0.6%) 96-well plates containing 80 µL growth media and further incubated for 15 days at 37 °C, such that each well contained a single spheroid. Formation of spheroids was observed and imaged every three days using a light microscope with a 4 × objective lens connected to a digital camera. During growth, 50% of the media was replaced every three days. The growth in volume of each spheroid was determined according to a published method. At least six spheroids were grown per seeding density for each independent experiment.
Spheroids were grown as described initially. Initial cell seeding density was chosen such that each spheroid reached a diameter of approximately 400 μm after three days (4,000 cells/well for A549 cells). After spheroids formation, spheroids were incubated with Ru-PIP (25 µM), Olaparib (5 µM) or both for a period of 12 days. The structural integrity of spheroids upon treatment was observed and imaged for every three days using a light microscope with a 4 × objective lens connected to a digital camera, and the volume of each spheroid was measured according to a published method. Prior to imaging, 50% of treatment-containing medium was replaced (every three days). At least six spheroids were grown per treatment for each independent experiment.

The next data set concerns zebrafish embryos. In words: Acute toxicity test on zebrafish embryos (OECD Test No. 236). The note with it: zebrafish embryos. The method, then: The newly fertilized eggs at less than 1 hpf (hours post fertilization) were collected, washed with deionized water and incubated at RT (28 ± 1 °C) in Danio-SprintM embryo media. […] Untreated control consisting of Danio-SprintM embryo media containing 0.1% DMSO. 24 embryos were used in total for each concentration per treatment of two independent experiments (n = 24). The zebrafish embryos development was observed and imaged using a light microscope attached to a digital camera at 24, 48, 72 and 96 hpf (hours post fertilization). Four lethal endpoints were evaluated including coagulated embryos, lack of somite formation, non-detachment of the tail and lack of heartbeat. All these characteristics were recorded every 24 hpf, except heartbeat, which is visible after 48 hpf. […] Hatching which is also considered as a sensitive endpoint toxicity parameter was also observed in which hatching normally occurs at 48 to 72 hpf.

SMILES strings stand for the structures. Values joined by “and” are separate entries in the source; they are usually repeats but may differ in a detail not shown here. Equal values may be shown once.

Usually IC50 stands for the point on the concentration scale where inhibition reaches its midpoint. Take `[Ru+2].c1ccc(-c2nc3c4cccnc4c4ncccc4c3[nH]2)cc1.c1ccc2nc3c4cccnc4c4ncccc4c3nc2c1.c1ccc2nc3c4cccnc4c4ncccc4c3nc2c1` [Ru-PIP, [Ru(dppz)2(PIP)]^2+]: the concentration for half-maximal inhibition (IC50) in the data set with H1975 lung cancer cells (24 h) was over 100 µM; with H1975 lung cancer cells (48 h) it was 95.1 ± 2.9 µM; in the data set with H1975 lung cancer cells (72 h), 59.4 ± 11.6 µM; in the data set with T24 bladder cancer cells (24 h), 45.1 ± 6.2 µM; with T24 bladder cancer cells (48 h), 22.7 ± 2.8 µM; in the data set on T24 bladder cancer cells (72 h), 15.8 ± 2.9 µM. Moreover, the IC50 in data set [1] (24 h) was over 100 µM; in data set [1] (48 h), 91 ± 7.9 µM; in data set [1] (72 h) it was over 100 µM. The “Selectivity Index (SI) = IC50 normal cells/IC50 cancer cells” value with H1975 lung cancer cells (48 h) is 0.9; with H1975 lung cancer cells (72 h) it was over 1.6; in the data set on T24 bladder cancer cells (24 h), over 2.2; in the data set with T24 bladder cancer cells (48 h), 4.0; in the data set with T24 bladder cancer cells (72 h), over 6.3. In addition, in data set [2], the “selectivity indices (SI)” value is listed as over 1.6. Besides, in the data set with A549 cells [3], the wound closure is listed as 88%. Also, in the data set on A549 cells [4], the “increase in G1 phase compared to control” value is recorded as 16.1%. Moreover, in the data set on A549 spheroids (12 days), the spheroid growth result is recorded as “prevented spheroid growth”. Moreover, in the data set on A549 spheroids (Olaparib 5 µM or both, 12 days after treatment initiation), the “structural integrity of pre-formed spheroids” value is given as “remained structurally intact”. In addition, in the data set on zebrafish embryos (50 mg/L Ru-PIP alone, 96 hpf), the “embryos showing yolk sac edema” value is reported as 33%. Besides, the “embryos' hatching prevented” value in the data set with zebrafish embryos (100 mg/L) was about 100%. The “96 h LC50” value in the data set on zebrafish embryos (96 h treatment) is 57.5 µg/mL and 55.5 µg/mL. Besides, the “survival and morphological changes of embryos” value in the data set on zebrafish embryos (< 25 mg/L) is recorded as “the embryos survive without any morphological defects”.

The values above are taken from publication PMC9879939, “Synergy of ruthenium metallo-intercalator, [Ru(dppz)2(PIP)]^2+, with PARP inhibitor Olaparib in non-small cell lung cancer cells” (Scientific Reports, 2023).
